Data reported in PMC8424644, “Thermodynamic Stability and Speciation of Ga(III) and Zr(IV) Complexes with High-Denticity Hydroxamate Chelators” (Inorganic Chemistry, 2021).

Experiments:
[1] = Fe(III)–Ga(III) metal–metal competition UV–vis titrations; format: physicochemical; conditions: Ga(III)-L + Fe(III) competition titration, pH 1.5; judged to carry a greater error, not retained
Experimental: Assuming the domination of the [GaHL1]^+ complex below pH 2, its stability was determined by metal–metal competition titrations, (i) Fe(III)-H3L1 + Ga(III) and (ii) Ga(III)-H3L1 + Fe(III), both performed at pH 1.5. This pH was chosen in order to prevent the hydrolysis of the free metal ions and decomposition of the ligand, which is common for hydroxamic acids at a very acidic pH.[37],[51] Upon addition of Ga(III) (up to 600 equiv) to the Fe(III)-H3L1 solution, the UV–vis band of [FeHL1]^+ (λmax = 470 nm, Figure 2a) slowly disappeared as a result of the [GaHL1]^+ complex formation. […]
For the Ga(III)-H4L2 system, [GaH2L2]^+ was assumed to be the most abundant species at pH 1.5, and its stability was again determined via (i) Fe(III)-H4L2 + Ga(III) and (ii) Ga(III)-H4L2 + Fe(III) titrations (Figure S8). […]
For the Ga(III)-H3L4 system, [GaHL4]^+ was assumed to be the major complex at pH 1.5, and its stability was determined via an Fe(III)-H3L4 + Ga(III) competition titration (Figure S9). […]
In order to calculate the stability constants of the investigated complexes, several competitive titrations were performed. […] After preparation, each solution was allowed to equilibrate for about 1 h, and then its UV–vis spectrum was recorded. The vials were kept in the dark, and the absorbance was measured again after 24, 48, and 120 h. […]

[2] = Fe(III)-L + Zr(IV)-NTA metal–metal competition UV–vis titrations; format: physicochemical; conditions: log β[ZrL2] vs log β[ZrL1]

log β [GaHL] [1] | log β [GaH2L] [1] | increase in log β of the Zr(IV) complex with respect to Zr(IV)-H3L1 [2] | SMILES
28.3(6) | – | – | O=C1CCCN(O)C(=O)CCCNC(=O)CCCN(O)C(=O)CCCNC(=O)CCCN(O)C(=O)CCCN1 [H3L1, 1,11,21-Trihydroxy-1,6,11,16,21,26-hexaazacyclotriacontane-2,7,12,17,22,27-hexaone]
– | 39.06(4) | 8.5 orders of magnitude | N[C@H]1CCCCNC(=O)CCCN(O)C(=O)CCCNC(=O)CCCN(O)C(=O)CCCNC(=O)CCCN(O)C(=O)CCCNC(=O)CCCN(O)C(=O)CCCNC1=O [H4L2, (S)-43-Amino-6,16,26,36-tetrahydroxy-1,6,11,16,21,26,31,36,41-nonaazacycloheptatetracontane-2,7,12,17,22,27,32,37,42-nonaone]
